Data as given in US20050255504A1, “Method of detecting an increased susceptibility to breast cancer” (priority 2004, published 2005).

T1: COMT (Homo sapiens, UniProt P21964)
T1 construct: made in house; host or cells: Escherichia coli DH5alphaF'Iq
T1 sequence (P21964 1-221 isoform P21964-2): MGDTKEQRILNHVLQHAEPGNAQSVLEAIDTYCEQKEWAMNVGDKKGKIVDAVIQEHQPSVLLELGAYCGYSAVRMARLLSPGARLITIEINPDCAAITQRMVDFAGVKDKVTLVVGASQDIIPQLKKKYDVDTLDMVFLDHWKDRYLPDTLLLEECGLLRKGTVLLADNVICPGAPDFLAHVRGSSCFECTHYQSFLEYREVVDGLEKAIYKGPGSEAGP


Experiments:
COMT = biological target: T1, COMT; test: Assay of COMT activity: methylation of catechol estrogens by purified recombinant His-COMT; type: biochemical; details: for pattern of the rates of methylation versus substrate concentration: substrate of COMT, FIG. 9; for formation as product of COMT methylation of 4-OHE2 / 4-OHE1: GC/MS detection of product
Description: Assay of COMT Activity. Purified recombinant His-COMT (300 pmol) was reconstituted in 0.5 ml of 100 mM KPO4, pH 7.4, containing 5 mM MgCl2, 10 mM (β-mercaptoethanol, and 200 μM SAM. Reactions were initiated by adding varying concentrations of each individual catechol estrogen (2, 3, 6, 9, 12, 15, 20, 40, 60, 80, and 100 μM). Blanks contained all compounds except SAM. Reactions proceeded for 10 min at 37° C. with gentle shaking and then were terminated by addition of 2 ml CH2Cl2. To determine COMT activity in breast cancer cells, ZR-75 and MCF-7 cells were harvested at confluency and homogenized in 100 mM KP04, pH 7.4, 5 mM MgCl2, 10 mM β-mercaptoethanol. Following ultracentrifugation of the cell homogenate (110,000 g, 30 min, 4° C.), the supernatant cytosol was divided into aliquots for ICELISA, protein determination (BCA assay; Pierce, Rockford, Ill.), and COMT assay. The latter was carried out in the presence of 200 μM SAM and 100 μM catechol estrogen for 20 min at 37° C. and then terminated by addition of CH2Cl2. The concentration of endogenous catechol and methoxy estrogens was below the limit of detection by gas chromatography/mass spectrometry.
Extraction and Gas Chromatography/Mass Spectrometry Analysis of Catechol Estrogens. A deuterated internal standard (100 μl of 8 mg/liter E2-d4 in methanol) was added and all estrogens extracted into the CH2Cl2 by vortex mixing for 30 s. 1.5 ml of the CH2Cl2 fraction was evaporated to dryness under air and volatile TMS derivatives prepared by heating the residue with 100 μl of 50% NO-bis(trimethylsilyl)trifluoroacetamide/1% trimethyl chlorosilane in acetonitrile at 56° C. for 30 min. The TMS derivatives of the estrogen metabolites were separated by gas chromatography (H—P 5890, Hewlett-Packard, Wilmington, Del.) on a 5% phenyl methyl silicone stationary phase fused silica capillary column (30 m×0.2 mm×0.5 μm film, HP5; Hewlett-Packard). Helium carrier gas was used at a flow of 1 ml/min. The injector was operated at 250° C., with 2 μl injected in the splitless mode, with a purge (60 ml/min helium) time of 0.6 min. The oven temperature was held at 180° C. for 0.5 min, then raised at 6° C./min to 250° C. where it was held for 17 min, then raised to 300° C. at 8° C./min to give a total run time of 35.42 min. This program permitted adequate separation of a wide range of estrogen metabolites. Retention times (in min) for the TMS derivatives were E1 20.13, E2 and E2-d4 21.89, 4-MeOE1 23.52, 2-MeO-3-MeOE1 (underivatized) 23.75, 2-OH-3-MeOE1 24.87, 2-MeOE1 25.2, 4-MeOE2 25.78, 2-OHE1 and 2-MeO-3-MeOE2 26.19, 2-OH-3-MeOE2 26.9, 2-MeOE2 27.18, 4-OHE1 27.27, 6a-OHE2 27.29, 2-OHE2 27.44, 4-OHE2 28.06, E3 28.38. The E1 mass spectrometer (H—P 5970) was operated in the selected ion monitoring mode from 18 to 30 min. Ions monitored were TMS-E1 342, 257, 343; TMS2-E2-d4 420, 421, 287; TMS2-E2 416, 417, 285; TMS-4-MeOE1, TMS-2-OH-3-MeOE1, TMS-2-MeOE1 and TMS-3-MeO-4-OHE1 372, 373, 342; 2-MeO-3-MeOE1 314, 315, 229; TMS2-4-MeOE2, TMS2-2-OH-3-MeOE2, TMS2-2-MeOE2 and TMS2-3-MeO-4-OHE2 446, 447, 315; TMS2-2-OHE1 430, 431, 432; TMS-2-MeO-3-MeOE2 388, 389, 257; TMS2-4-OHE1 430, 431, 345; TMS2-6α-OHE2 414, 283, 309; TMS3-2-OHE2 and TMS3-4-OHE2 504, 505, 373; TMS3-E3 504, 505, 311 (FIG. 7). The instrument was calibrated by simultaneous preparation of an 11-point calibration over the range 0-22 nmol/tube of each compound. Sensitivity was determined to be between 0.02 and 0.04 nmol/tube (400-800 finol on column) for the various compounds. […] Absolute extraction efficiency for E2,2-OH-E2 and 4-OH-E2 at 3.5 nmol/tube was 119, 96, and 107% assessed by comparison to injections of spiked solvent samples onto the gas chromatograph. Internal standard added prior to extraction compensated for deviation from 100% recovery for all investigated compounds.
Statistical Analysis. […]

renal DNA = details: hamster, in vivo; cited from earlier work
CYP1B1 = test: Assay of CYP1B1 E2 hydroxylation activity (purified recombinant enzyme, GC/MS of products); type: biochemical, human; details: E2 16a-hydroxylation
Description: Assay of CYP1B1 E2 Hydroxylation Activity. […] An NADPH-generating system consisting of 5 mM glucose 6-phosphate and 0.5 U of glucose-6-phosphate dehydrogenase/ml was added and reactions initiated by adding NADP+ to a final concentration of 0.5 mM. Reactions proceeded for 10 min at 37° C. with gentle shaking and then were terminated by addition of 2 ml CH2Cl2. Extraction and Gas Chromatography/Mass Spectrometry Analysis of E2 and Metabolites. […] Hewlett-Packard). Helium carrier gas was used at a flow of 1 ml/min. The injector was operated at 250° C., with […] injected in the splitless mode, with a purge (60 ml/min helium) time of 0.6 min. The oven temperature was held at 180° C. for 0.5 min, then raised at 6° C./min to 250° C. where it was held for 17 min, then raised to 300° C. at 8° C./min to give a total run time of 35.42 min. […] The E1 mass spectrometer (H-P 5970) was operated in the selected ion monitoring mode from 18 to 34 min. […] TMS2-E2 416, 285, 326; […]2 504, 373, 325; TMS3-16_-OH-E2 345, 311, 504. […] Internal standard added prior to extraction compensated for deviation from 100% recovery. Statistical Analysis. Kinetic parameters (Km and kcat) were determined by nonlinear regression analysis using the computer program GraphPad PRISM (San Diego, Calif.).

Row | pattern of the rates of methylation versus substrate concentration (COMT) | Molecule | 16a-OH-Estradiol kcat (CYP1B1) | other results
1 | typical hyperbolic patterns | C[C@]12CC[C@@H]3c4cc(O)c(O)cc4CC[C@H]3[C@@H]1CCC2=O [Variant 2-OHE1] |  | 
2 |  | COc1ccc2c(c1O)CC[C@@H]1[C@@H]2CC[C@]2(C)C(=O)CC[C@@H]12 [Variant 3-MeO-4-OHE1] |  | formation as product of COMT methylation of 4-OHE2 / 4-OHE1 (COMT): not observed
3 |  | COc1ccc2c(c1O)CC[C@@H]1[C@@H]2CC[C@]2(C)[C@@H](O)CC[C@@H]12 [Variant 3-MeO-4-OHE2] |  | formation as product of COMT methylation of 4-OHE2 / 4-OHE1 (COMT): not observed
4 | sigmoid curve pattern | C[C@]12CC[C@@H]3c4ccc(O)c(O)c4CC[C@H]3[C@@H]1CCC2=O [Variant 4-OHE1] |  | levels of the oxidized base 8-hydroxy-deoxyguanosine in renal DNA (renal DNA): significantly increased
5 | typical hyperbolic patterns | C[C@]12CC[C@@H]3c4cc(O)c(O)cc4CC[C@H]3[C@@H]1CC[C@@H]2O [Variant 2-OHE2] |  | levels of the oxidized base 8-hydroxy-deoxyguanosine in renal DNA (renal DNA): did not cause oxidative DNA damage
6 |  | Variant 4: recombinant CYP1B1 variant: 48Arg, 119Ala, 432Val, 453Ser (protein, UniProt Q16678 1-543, looked up, variant N453S) Cytochrome P450 1B1: MGTSLSPNDPWPLNPLSIQQTTLLLLLSVLATVHVGQRLLRQRRRQLRSAPPGPFAWPLIGNAAAVGQAAHLSFARLARRYGDVFQIRLGSCPIVVLNGERAIHQALVQQGSAFADRPAFASFRVVSGGRSMAFGHYSEHWKVQRRAAHSMMRNFFTRQPRSRQVLEGHVLSEARELVALLVRGSADGAFLDPRPLTVVAVANVMSAVCFGCRYSHDDPEFRELLSHNEEFGRTVGAGSLVDVMPWLQYFPNPVRTVFREFEQLNRNFSNFILDKFLRHCESLRPGAAPRDMMDAFILSAEKKAAGDSHGGGARLDLENVPATITDIFGASQDTLSTALQWLLLLFTRYPDVQTRVQAELDQVVGRDRLPCMGDQPNLPYVLAFLYEAMRFSSFVPVTIPHATTANTSVLGYHIPKDTVVFVNQWSVNHDPLKWPNPENFDPARFLDKDGLISKDLTSRVMIFSVGKRRCIGEELSKMQLFLFISILAHQCDFRANPNEPAKMNFSYGLTIKPKSFKVNVTLRESMELLDSAVQNLQAKETCQ | 0.0065 ± 0.00033 s⁻¹ | 
7 |  | Variant 1: recombinant CYP1B1 variant: 48Gly, 119Ala, 432Val, 453Asn (protein, UniProt Q16678 1-543, looked up, variant R48G) Cytochrome P450 1B1: MGTSLSPNDPWPLNPLSIQQTTLLLLLSVLATVHVGQRLLRQRRRQLGSAPPGPFAWPLIGNAAAVGQAAHLSFARLARRYGDVFQIRLGSCPIVVLNGERAIHQALVQQGSAFADRPAFASFRVVSGGRSMAFGHYSEHWKVQRRAAHSMMRNFFTRQPRSRQVLEGHVLSEARELVALLVRGSADGAFLDPRPLTVVAVANVMSAVCFGCRYSHDDPEFRELLSHNEEFGRTVGAGSLVDVMPWLQYFPNPVRTVFREFEQLNRNFSNFILDKFLRHCESLRPGAAPRDMMDAFILSAEKKAAGDSHGGGARLDLENVPATITDIFGASQDTLSTALQWLLLLFTRYPDVQTRVQAELDQVVGRDRLPCMGDQPNLPYVLAFLYEAMRFSSFVPVTIPHATTANTSVLGYHIPKDTVVFVNQWSVNHDPLKWPNPENFDPARFLDKDGLINKDLTSRVMIFSVGKRRCIGEELSKMQLFLFISILAHQCDFRANPNEPAKMNFSYGLTIKPKSFKVNVTLRESMELLDSAVQNLQAKETCQ | 0.00933 ± 0.00067 s⁻¹ | 
8 |  | Variant 2: recombinant CYP1B1 variant: 48Arg, 119Ser, 432Val, 453Asn (protein, UniProt Q16678 1-543, looked up, variant A119S) Cytochrome P450 1B1: MGTSLSPNDPWPLNPLSIQQTTLLLLLSVLATVHVGQRLLRQRRRQLRSAPPGPFAWPLIGNAAAVGQAAHLSFARLARRYGDVFQIRLGSCPIVVLNGERAIHQALVQQGSAFADRPSFASFRVVSGGRSMAFGHYSEHWKVQRRAAHSMMRNFFTRQPRSRQVLEGHVLSEARELVALLVRGSADGAFLDPRPLTVVAVANVMSAVCFGCRYSHDDPEFRELLSHNEEFGRTVGAGSLVDVMPWLQYFPNPVRTVFREFEQLNRNFSNFILDKFLRHCESLRPGAAPRDMMDAFILSAEKKAAGDSHGGGARLDLENVPATITDIFGASQDTLSTALQWLLLLFTRYPDVQTRVQAELDQVVGRDRLPCMGDQPNLPYVLAFLYEAMRFSSFVPVTIPHATTANTSVLGYHIPKDTVVFVNQWSVNHDPLKWPNPENFDPARFLDKDGLINKDLTSRVMIFSVGKRRCIGEELSKMQLFLFISILAHQCDFRANPNEPAKMNFSYGLTIKPKSFKVNVTLRESMELLDSAVQNLQAKETCQ | 0.00567 ± 0.00033 s⁻¹ | 
9 |  | Wild type: purified recombinant His-tagged wild type CYP1B1: 48Arg, 119Ala, 432Val, 453Asn (protein) HHHHHHLLSVLATVHVGQRLLRQRRRQLRSAPPGPFAWPLIGNAAAVGQAAHLSFARLARRYGDVFQIRLGSCPIVVLNGERAIHQALVQQGSAFADRPAFASFRVVSGGRSMAFGHYSEHWKVQRRAAHSMMRNFFTRQPRSRQVLEGHVLSEARELVALLVRGSADGAFLDPRPLTVVAVANVMSAVCFGCRYSHDDPEFRELLSHNEEFGRTVGAGSLVDVMPWLQYFPNPVRTVFREFEQLNRNFSNFILDKFLRHCESLRPGAAPRDMMDAFILSAEKKAAGDSHGGGARLDLENVPATITDIFGASQDTLSTALQWLLLLFTRYPDVQTRVQAELDQVVGRDRLPCMGDQPNLPYVLAFLYEAMRFSSFVPVTIPHATTANTSVLGYHIPKDTVVFVNQWSVNHDPLKWPNPENFDPARFLDKDGLINKDLTSRVMIFSVGKRRCIGEELSKMQLFLFISILAHQCDFRANPNEPAKMNFSYGLTIKPKSFKVNVTLRESMELLDSAVQNLQAKETCQ | 0.005 ± 0.00033 s⁻¹ | 16a-OH-Estradiol kcat (CYP1B1; listed as Wild type CYP1B1): 0.005 ± 0.00033 s⁻¹; 16a-OH-Estradiol kcat (CYP1B1; listed as wild type CYP1B1): 0.005 ± 0.00033 s⁻¹
